Experimental data reported in PubChem BioAssay (NCI).
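A five-concentration, 48-hour dose response in 96-well plates underlies each endpoint, interpolated linearly between surrounding concentrations. GI50: concentration for 50% inhibition of growth. TGI: total growth inhibition.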

Key:
Experiment in all cases: NCI-60 cell line screen, 48 h
OVCAR-3 ovarian = test system: OVCAR-3 ovarian
HOP-92 NSCLC = test system: HOP-92 NSCLC
TK-10 renal = test system: TK-10 renal
SK-MEL-28 melanoma = test system: SK-MEL-28 melanoma
U251 CNS = test system: U251 CNS
SF-539 CNS = test system: SF-539 CNS
HS 578T breast = test system: HS 578T breast
SNB-75 CNS = test system: SNB-75 CNS
HL-60(TB) leukemia = test system: HL-60(TB) leukemia
SF-268 CNS = test system: SF-268 CNS
EKVX NSCLC = test system: EKVX NSCLC
MCF7 breast = test system: MCF7 breast
SK-OV-3 ovarian = test system: SK-OV-3 ovarian
HT29 colon = test system: HT29 colon
MALME-3M melanoma = test system: MALME-3M melanoma
MDA-MB-435 = test system: MDA-MB-435
HCC-2998 colon = test system: HCC-2998 colon
KM12 colon = test system: KM12 colon
MDA-MB-231 breast = test system: MDA-MB-231 breast
MOLT-4 leukemia = test system: MOLT-4 leukemia
NCI-H460 lung = test system: NCI-H460 lung
SK-MEL-2 melanoma = test system: SK-MEL-2 melanoma
A498 renal = test system: A498 renal
SN12C renal = test system: SN12C renal
COLO 205 colon = test system: COLO 205 colon
LOX IMVI melanoma = test system: LOX IMVI melanoma
PC-3 prostate = test system: PC-3 prostate
HCT-15 colon = test system: HCT-15 colon
HOP-62 NSCLC = test system: HOP-62 NSCLC
IGROV1 ovarian = test system: IGROV1 ovarian
HCT-116 colon = test system: HCT-116 colon
RPMI-8226 leukemia = test system: RPMI-8226 leukemia
SW-620 colon = test system: SW-620 colon
NCI-H522 lung = test system: NCI-H522 lung
UACC-62 melanoma = test system: UACC-62 melanoma
M14 melanoma = test system: M14 melanoma
OVCAR-4 ovarian = test system: OVCAR-4 ovarian
RXF 393 renal = test system: RXF 393 renal
SR leukemia = test system: SR leukemia
UACC-257 melanoma = test system: UACC-257 melanoma
A549 NSCLC = test system: A549 NSCLC
CAKI-1 renal = test system: CAKI-1 renal
SNB-19 CNS = test system: SNB-19 CNS
OVCAR-8 ovarian = test system: OVCAR-8 ovarian
UO-31 renal = test system: UO-31 renal
ACHN renal = test system: ACHN renal
786-0 renal = test system: 786-0 renal
NCI-H23 lung = test system: NCI-H23 lung
SK-MEL-5 melanoma = test system: SK-MEL-5 melanoma
NCI-H226 lung = test system: NCI-H226 lung
K-562 leukemia = test system: K-562 leukemia
DU-145 prostate = test system: DU-145 prostate
NCI/ADR-RES ovarian = test system: NCI/ADR-RES ovarian
OVCAR-5 ovarian = test system: OVCAR-5 ovarian
CCRF-CEM leukemia = test system: CCRF-CEM leukemia
BT-549 breast = test system: BT-549 breast

O=C(NC(=S)Nc1ccc(-c2nc3ccccc3[nH]2)cc1)c1ccc2ccccc2c1
GI50 (OVCAR-3 ovarian): 3.22 µM
TGI (OVCAR-3 ovarian): 10.1 µM
GI50 (HOP-92 NSCLC): 2.17 µM
TGI (HOP-92 NSCLC): 7.02 µM
GI50 (TK-10 renal): 3.33 µM
TGI (TK-10 renal): 8.44 µM
GI50 (SK-MEL-28 melanoma): 3.86 µM
TGI (SK-MEL-28 melanoma): 23.4 µM
GI50 (U251 CNS): 3.62 µM
TGI (U251 CNS): 18.1 µM
GI50 (SF-539 CNS): 2.07 µM
TGI (SF-539 CNS): 4.53 µM
GI50 (HS 578T breast): 3.09 µM
TGI (HS 578T breast): 9.94 µM
GI50 (SNB-75 CNS): 1.46 µM
TGI (SNB-75 CNS): 3.38 µM
GI50 (HL-60(TB) leukemia): 6.31 µM
TGI (HL-60(TB) leukemia): 26 µM
GI50 (SF-268 CNS): > 100 µM
TGI (SF-268 CNS): > 100 µM
GI50 (EKVX NSCLC): 22.9 µM
TGI (EKVX NSCLC): > 100 µM
GI50 (MCF7 breast): 4.56 µM
TGI (MCF7 breast): > 100 µM
GI50 (SK-OV-3 ovarian): 12.8 µM
TGI (SK-OV-3 ovarian): 37 µM
GI50 (HT29 colon): 4.61 µM
TGI (HT29 colon): > 100 µM
GI50 (MALME-3M melanoma): 2.14 µM
TGI (MALME-3M melanoma): 5.54 µM
GI50 (MDA-MB-435): 4.27 µM
TGI (MDA-MB-435): > 100 µM
GI50 (HCC-2998 colon): 7.15 µM
TGI (HCC-2998 colon): > 100 µM
GI50 (KM12 colon): 6.49 µM
TGI (KM12 colon): > 100 µM
GI50 (MDA-MB-231 breast): 2.46 µM
TGI (MDA-MB-231 breast): 7.15 µM
GI50 (MOLT-4 leukemia): 8.04 µM
TGI (MOLT-4 leukemia): > 100 µM
GI50 (NCI-H460 lung): 4.29 µM
TGI (NCI-H460 lung): > 100 µM
GI50 (SK-MEL-2 melanoma): 18.3 µM
TGI (SK-MEL-2 melanoma): 48.8 µM
GI50 (A498 renal): 10.7 µM
TGI (A498 renal): 57.8 µM
GI50 (SN12C renal): 3.18 µM
TGI (SN12C renal): 9.81 µM
GI50 (COLO 205 colon): 4.98 µM
TGI (COLO 205 colon): 46.5 µM
GI50 (LOX IMVI melanoma): 2.14 µM
TGI (LOX IMVI melanoma): 4.74 µM
GI50 (PC-3 prostate): 3.26 µM
TGI (PC-3 prostate): 35.5 µM
GI50 (HCT-15 colon): 3.15 µM
TGI (HCT-15 colon): 50.1 µM
GI50 (HOP-62 NSCLC): 2.41 µM
TGI (HOP-62 NSCLC): 5.58 µM
GI50 (IGROV1 ovarian): 7.66 µM
TGI (IGROV1 ovarian): > 100 µM
GI50 (HCT-116 colon): 2.56 µM
TGI (HCT-116 colon): 7.33 µM
GI50 (RPMI-8226 leukemia): 2.62 µM
TGI (RPMI-8226 leukemia): 9.29 µM
GI50 (SW-620 colon): 4.2 µM
TGI (SW-620 colon): > 100 µM
GI50 (NCI-H522 lung): 18.9 µM
TGI (NCI-H522 lung): > 100 µM
GI50 (UACC-62 melanoma): 4.06 µM
TGI (UACC-62 melanoma): > 100 µM
GI50 (M14 melanoma): 4.79 µM
TGI (M14 melanoma): > 100 µM
GI50 (OVCAR-4 ovarian): 2.78 µM
TGI (OVCAR-4 ovarian): 9.22 µM
GI50 (RXF 393 renal): 1.92 µM
TGI (RXF 393 renal): 3.77 µM
GI50 (SR leukemia): 0.645 µM
TGI (SR leukemia): 11.6 µM
GI50 (UACC-257 melanoma): 5.59 µM
TGI (UACC-257 melanoma): > 100 µM
GI50 (A549 NSCLC): 3.79 µM
TGI (A549 NSCLC): > 100 µM
GI50 (CAKI-1 renal): 1.96 µM
TGI (CAKI-1 renal): 4.58 µM
GI50 (SNB-19 CNS): 68.1 µM
TGI (SNB-19 CNS): > 100 µM
GI50 (OVCAR-8 ovarian): 4.11 µM
TGI (OVCAR-8 ovarian): > 100 µM
GI50 (UO-31 renal): 1.92 µM
TGI (UO-31 renal): 3.65 µM
GI50 (ACHN renal): 1.92 µM
TGI (ACHN renal): 4.02 µM
GI50 (786-0 renal): 1.88 µM
TGI (786-0 renal): 3.52 µM
GI50 (NCI-H23 lung): 17.8 µM
TGI (NCI-H23 lung): > 100 µM
GI50 (SK-MEL-5 melanoma): 3.63 µM
TGI (SK-MEL-5 melanoma): > 100 µM
GI50 (NCI-H226 lung): 4.36 µM
TGI (NCI-H226 lung): 25.4 µM
GI50 (K-562 leukemia): 13.3 µM
TGI (K-562 leukemia): > 100 µM
GI50 (DU-145 prostate): 3.9 µM
TGI (DU-145 prostate): > 100 µM
GI50 (NCI/ADR-RES ovarian): 4.52 µM
TGI (NCI/ADR-RES ovarian): > 100 µM
GI50 (OVCAR-5 ovarian): 3.75 µM
TGI (OVCAR-5 ovarian): 16.6 µM
GI50 (CCRF-CEM leukemia): 6 µM
TGI (CCRF-CEM leukemia): > 100 µM
GI50 (BT-549 breast): 2.2 µM
TGI (BT-549 breast): 6.73 µM
